{
  "source": "patent US7507730B2",
  "about": "“Substituted pyrazolo[1,5-a]pyrimidines as potassium channel activators” (Bristol-Myers Squibb Company, priority 2005, dated 2009)",
  "note": "pIC50: −log10 of the molar value.",
  "data": [
    {"target": "Kv1.5 (Homo sapiens, UniProt P22460)", "sequence (P22460 whole entry)": "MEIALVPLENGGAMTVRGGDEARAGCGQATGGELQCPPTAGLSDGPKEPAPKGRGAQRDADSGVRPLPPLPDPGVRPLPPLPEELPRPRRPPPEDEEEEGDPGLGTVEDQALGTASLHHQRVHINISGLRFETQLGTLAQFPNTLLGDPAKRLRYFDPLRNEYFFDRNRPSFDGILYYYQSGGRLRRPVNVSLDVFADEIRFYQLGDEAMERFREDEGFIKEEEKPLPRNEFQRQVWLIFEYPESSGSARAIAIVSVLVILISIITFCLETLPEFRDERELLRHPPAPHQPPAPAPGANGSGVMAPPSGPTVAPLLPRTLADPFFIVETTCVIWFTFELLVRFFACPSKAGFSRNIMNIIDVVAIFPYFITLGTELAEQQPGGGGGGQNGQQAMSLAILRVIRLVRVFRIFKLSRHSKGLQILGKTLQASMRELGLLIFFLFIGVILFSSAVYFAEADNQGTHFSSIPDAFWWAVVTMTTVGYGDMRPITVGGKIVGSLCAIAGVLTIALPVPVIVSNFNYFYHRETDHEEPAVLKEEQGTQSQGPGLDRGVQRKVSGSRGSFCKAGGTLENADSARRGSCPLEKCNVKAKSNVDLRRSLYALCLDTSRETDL", "assay": "Kv1.5 inhibition assay (IKur inhibitor assay per cited references)", "assay_type": "cell-based", "conditions": "at 0.3 μM", "excerpt": "(§1) Assays to determine the degree of activity of a compound as an IKur inhibitor are well known in the art and are described in references such as J. Gen. Physiol. Apr.; 101 (4):513-43, and Br. J. Pharmacol. 1995 May; 115(2):267-74.", "units": {"inhibition at 0.3 µM": "%", "Kv1.5% inhibition": "%"}, "values": [
      {"smiles": "CCCS(=O)(=O)N(C(=O)C1=C(C)Nc2cc(C(F)(F)F)nn2C1c1ccc(Cl)c(Cl)c1)C1CC1", "note": "(racemic) [Example 88, N-Cyclopropyl-7-(3,4-dichlorophenyl)-5-methyl-N-(propylsulfonyl)-2-(trifluoromethyl)-4,7-dihydropyrazolo[1,5-a]pyrimidine-6-carboxamide]", "inhibition at 0.3 µM": 71},
      {"smiles": "CC1=C(C(=O)N(C)S(=O)(=O)c2ccc(Cl)cc2)C(c2ccc(Cl)c(Cl)c2)n2nc(C(F)(F)F)cc2N1", "note": "(racemic) [Example 89, N-(4-Chlorophenylsulfonyl)-7-(3,4-dichlorophenyl)-N,5-dimethyl-2-(trifluoromethyl)-4,7-dihydropyrazolo[1,5-a]pyrimidine-6-carboxamide]", "inhibition at 0.3 µM": 40},
      {"smiles": "Cc1nc2cc(C(F)(F)F)nn2c(-c2ccc(Cl)c(Cl)c2)c1C(=O)N(C)S(=O)(=O)c1ccccc1", "note": "(racemic) [Example 92, 7-(3,4-Dichlorophenyl)-N,5-dimethyl-N-(phenylsulfonyl)-2-(trifluoromethyl)pyrazolo[1,5-a]pyrimidine-6-carboxamide]", "inhibition at 0.3 µM": 41},
      {"smiles": "CC1=C(S(=O)(=O)c2ccc(F)cc2)C(c2ccc(Cl)c(Cl)c2)n2nc(C)cc2N1", "note": "(single isomer, unassigned) [Example 1 Isomer 1, 7-(3,4-Dichlorophenyl)-6-(4-fluorophenylsulfonyl)-2,5-dimethyl-4,7-dihydropyrazolo[1,5-a]pyrimidine]", "Kv1.5% inhibition": 98},
      {"smiles": "CC1=C(S(=O)(=O)c2ccc(F)cc2)C(c2ccc(Cl)c(Cl)c2)n2nc(C)cc2N1", "note": "(single isomer, unassigned) [Example 1 Isomer 2, 7-(3,4-Dichlorophenyl)-6-(4-fluorophenylsulfonyl)-2,5-dimethyl-4,7-dihydropyrazolo[1,5-a]pyrimidine]", "Kv1.5% inhibition": 48},
      {"smiles": "CC1=C(S(=O)(=O)c2ccc(Cl)cc2)C(c2ccc(Cl)c(Cl)c2)n2nc(C(F)(F)F)cc2N1", "note": "(single isomer, unassigned) [Example 4 Isomer 2, 6-(4-Chlorophenylsulfonyl)-7-(3,4-dichlorophenyl)-5-methyl-2-(trifluoromethyl)-4,7-dihydropyrazolo[1,5-a]pyrimidine]", "inhibition at 0.3 µM": 36.2},
      {"smiles": "CC1=C(S(=O)(=O)c2ccccc2)C(c2ccc(Cl)c(F)c2)n2nc(C)cc2N1", "note": "(single isomer, unassigned) [Example 7 Isomer 1, 7-(4-Chloro-3-fluorophenyl)-2,5-dimethyl-6-(phenylsulfonyl)-4,7-dihydropyrazolo[1,5-a]pyrimidine]", "Kv1.5% inhibition": 90.8},
      {"smiles": "CC1=C(S(=O)(=O)c2ccccc2)C(c2ccc(Cl)c(F)c2)n2nc(C)cc2N1", "note": "(single isomer, unassigned) [Example 7 Isomer 2, 7-(4-Chloro-3-fluorophenyl)-2,5-dimethyl-6-(phenylsulfonyl)-4,7-dihydropyrazolo[1,5-a]pyrimidine]", "Kv1.5% inhibition": 32.4},
      {"smiles": "CC1=C(S(=O)(=O)c2ccc(C(F)(F)F)cc2)C(c2ccc(Cl)c(Cl)c2)n2nc(C)cc2N1", "note": "(single isomer, unassigned) [Example 9 Isomer 2, 7-(3,4-Dichlorophenyl)-2,5-dimethyl-6-(4-(trifluoromethyl)phenylsulfonyl)-4,7-dihydropyrazolo[1,5-a]pyrimidine]", "inhibition at 0.3 µM": 59.7},
      {"smiles": "CC1=C(S(=O)(=O)C2CCCCC2)C(c2ccc(Cl)c(Cl)c2)n2nc(C)cc2N1", "note": "(single isomer, unassigned) [Example 10 Isomer 2, 6-(Cyclohexylsulfonyl)-7-(3,4-dichlorophenyl)-2,5-dimethyl-4,7-dihydropyrazolo[1,5-a]pyrimidine]", "inhibition at 0.3 µM": 59.3},
      {"smiles": "CC1=C(S(=O)(=O)c2ccccn2)C(c2ccc(Cl)c(Cl)c2)n2nc(C)cc2N1", "note": "(single isomer, unassigned) [Example 11 Isomer 1, 7-(3,4-Dichlorophenyl)-2,5-dimethyl-6-(pyridin-2-ylsulfonyl)-4,7-dihydropyrazolo[1,5-a]pyrimidine]", "Kv1.5% inhibition": 72.5},
      {"smiles": "CC1=C(S(=O)(=O)c2ccccn2)C(c2ccc(Cl)c(Cl)c2)n2nc(C)cc2N1", "note": "(single isomer, unassigned) [Example 11 Isomer 2, 7-(3,4-Dichlorophenyl)-2,5-dimethyl-6-(pyridin-2-ylsulfonyl)-4,7-dihydropyrazolo[1,5-a]pyrimidine]", "Kv1.5% inhibition": 21.5},
      {"smiles": "COc1ccc(S(=O)(=O)C2=C(C)Nc3cc(C)nn3C2c2cccc(Cl)c2)cc1", "note": "(single isomer, unassigned) [Example 17 Isomer 2, 7-(3-Chlorophenyl)-6-(4-methoxyphenylsulfonyl)-2,5-dimethyl-4,7-dihydropyrazolo[1,5-a]pyrimidine]", "inhibition at 0.3 µM": 18.1},
      {"smiles": "CCCCS(=O)(=O)C1=C(C)Nc2cc(C)nn2C1c1ccc(Cl)c(Cl)c1", "note": "(single isomer, unassigned) [Example 18 Isomer 1, 6-(Butylsulfonyl)-7-(3,4-dichlorophenyl)-2,5-dimethyl-4,7-dihydropyrazolo[1,5-a]pyrimidine]", "Kv1.5% inhibition": 84.6},
      {"smiles": "CCCCS(=O)(=O)C1=C(C)Nc2cc(C)nn2C1c1ccc(Cl)c(Cl)c1", "note": "(single isomer, unassigned) [Example 18 Isomer 2, 6-(Butylsulfonyl)-7-(3,4-dichlorophenyl)-2,5-dimethyl-4,7-dihydropyrazolo[1,5-a]pyrimidine]", "Kv1.5% inhibition": 28.8}
    ]},
    {"target": "Kv1.5 (Homo sapiens, UniProt P22460)", "assay": "Kv1.5 inhibition assay (IKur inhibitor assay per cited references)", "assay_type": "cell-based", "conditions": "read-out: Kv1.5 IC50", "excerpt": "as §1", "values": [
      {"smiles": "CC1=C(S(=O)(=O)c2ccc(Cl)cc2)C(c2ccc(Cl)c(Cl)c2)n2nccc2N1", "note": "(single isomer, unassigned) [Example 2 Isomer 1, 6-(4-Chlorophenylsulfonyl)-7-(3,4-dichlorophenyl)-5-methyl-4,7-dihydropyrazolo[1,5-a]pyrimidine]", "pIC50": 7.04},
      {"smiles": "CC1=C(S(=O)(=O)c2ccc(Cl)cc2)C(c2ccc(Cl)c(Cl)c2)n2nccc2N1", "note": "(single isomer, unassigned) [Example 2 Isomer 2, 6-(4-Chlorophenylsulfonyl)-7-(3,4-dichlorophenyl)-5-methyl-4,7-dihydropyrazolo[1,5-a]pyrimidine]", "pIC50": 7.43},
      {"smiles": "CC1=C(S(=O)(=O)c2ccccc2)C(c2ccc(Cl)c(Cl)c2)n2nc(C)cc2N1", "note": "(single isomer, unassigned) [Example 3 Isomer 1, 7-(3,4-Dichlorophenyl)-2,5-dimethyl-6-(phenylsulfonyl)-4,7-dihydropyrazolo[1,5-a]pyrimidine]", "pIC50": 7.39},
      {"smiles": "CC1=C(S(=O)(=O)c2ccccc2)C(c2ccc(Cl)c(Cl)c2)n2nc(C)cc2N1", "note": "(single isomer, unassigned) [Example 3 Isomer 2, 7-(3,4-Dichlorophenyl)-2,5-dimethyl-6-(phenylsulfonyl)-4,7-dihydropyrazolo[1,5-a]pyrimidine]", "pIC50": 6.53},
      {"smiles": "CC1=C(S(=O)(=O)c2ccc(Cl)cc2)C(c2ccc(Cl)c(Cl)c2)n2nc(C(F)(F)F)cc2N1", "note": "(single isomer, unassigned) [Example 4 Isomer 1, 6-(4-Chlorophenylsulfonyl)-7-(3,4-dichlorophenyl)-5-methyl-2-(trifluoromethyl)-4,7-dihydropyrazolo[1,5-a]pyrimidine]", "pIC50": 6.74},
      {"smiles": "CC1=C(S(=O)(=O)c2ccc(C)cc2)C(c2ccc(Cl)c(Cl)c2)n2nc(C)cc2N1", "note": "(single isomer, unassigned) [Example 5 Isomer 1, 7-(3,4-Dichlorophenyl)-2,5-dimethyl-6-tosyl-4,7-dihydropyrazolo[1,5-a]pyrimidine]", "pIC50": 7.32},
      {"smiles": "CC1=C(S(=O)(=O)c2ccc(C)cc2)C(c2ccc(Cl)c(Cl)c2)n2nc(C)cc2N1", "note": "(single isomer, unassigned) [Example 5 Isomer 2, 7-(3,4-Dichlorophenyl)-2,5-dimethyl-6-tosyl-4,7-dihydropyrazolo[1,5-a]pyrimidine]", "pIC50": 6.88},
      {"smiles": "COc1ccc(S(=O)(=O)C2=C(C)Nc3cc(C)nn3C2c2ccc(Cl)c(Cl)c2)cc1", "note": "(single isomer, unassigned) [Example 8 Isomer 1, 7-(3,4-Dichlorophenyl)-6-(4-methoxyphenylsulfonyl)-2,5-dimethyl-4,7-dihydropyrazolo[1,5-a]pyrimidine]", "pIC50": 7.64},
      {"smiles": "COc1ccc(S(=O)(=O)C2=C(C)Nc3cc(C)nn3C2c2ccc(Cl)c(Cl)c2)cc1", "note": "(single isomer, unassigned) [Example 8 Isomer 2, 7-(3,4-Dichlorophenyl)-6-(4-methoxyphenylsulfonyl)-2,5-dimethyl-4,7-dihydropyrazolo[1,5-a]pyrimidine]", "pIC50": 6.76},
      {"smiles": "CC1=C(S(=O)(=O)c2ccc(C(F)(F)F)cc2)C(c2ccc(Cl)c(Cl)c2)n2nc(C)cc2N1", "note": "(single isomer, unassigned) [Example 9 Isomer 1, 7-(3,4-Dichlorophenyl)-2,5-dimethyl-6-(4-(trifluoromethyl)phenylsulfonyl)-4,7-dihydropyrazolo[1,5-a]pyrimidine]", "pIC50": 6.63},
      {"smiles": "CC1=C(S(=O)(=O)C2CCCCC2)C(c2ccc(Cl)c(Cl)c2)n2nc(C)cc2N1", "note": "(single isomer, unassigned) [Example 10 Isomer 1, 6-(Cyclohexylsulfonyl)-7-(3,4-dichlorophenyl)-2,5-dimethyl-4,7-dihydropyrazolo[1,5-a]pyrimidine]", "pIC50": 7.11},
      {"smiles": "CC1=C(S(=O)(=O)c2ccc(F)cc2)C(c2ccc(Cl)c(Cl)c2)n2nc(C(F)(F)F)cc2N1", "note": "(single isomer, unassigned) [Example 12 Isomer 1, 7-(3,4-Dichlorophenyl)-6-(4-fluorophenylsulfonyl)-5-methyl-2-(trifluoromethyl)-4,7-dihydropyrazolo[1,5-a]pyrimidine]", "pIC50": 6.85},
      {"smiles": "COc1ccc(S(=O)(=O)C2=C(C)Nc3cc(C)nn3C2c2cccc(Cl)c2)cc1", "note": "(single isomer, unassigned) [Example 17 Isomer 1, 7-(3-Chlorophenyl)-6-(4-methoxyphenylsulfonyl)-2,5-dimethyl-4,7-dihydropyrazolo[1,5-a]pyrimidine]", "pIC50": 6.59},
      {"smiles": "COc1ccc(S(=O)(=O)C2=C(C)Nc3cc(C)nn3C2c2ccc(Cl)cc2)cc1", "note": "(single isomer, unassigned) [Example 19 Isomer 1, 7-(4-Chlorophenyl)-6-(4-methoxyphenylsulfonyl)-2,5-dimethyl-4,7-dihydropyrazolo[1,5-a]pyrimidine]", "pIC50": 7.26}
    ]}
  ]
}
